Laboratory results from patent US20130217694A1, “METHOD OF REDUCING THE SEVERITY OF INFLAMMATORY DERMATOLOGICAL CONDITIONS” (Allergan, Inc.., priority 2003, published 2013).

Columns and labels:
[1] = tested on: mice; experiment: NMDA-induced tactile hypersensitivity in mice; format: in vivo, mouse; conditions: for tactile (mechanical) hypersensitivity score: NMDA (100 ng IT), cumulative score 0 to 16, mean ± SEM; for inhibition of NMDA-induced tactile hypersensitivity: result in words
Method: (§1) Spinal drug injections were performed as follows. […] Briefly, a sterile 30-gauge ½ inch needle attached to a microsyringe was inserted between the L5 and L6 vertebrae. The mouse was held firmly by the pelvic girdle in one hand, while the syringe was held in the other hand at an angle of approximately 20° above the vertebral column. The needle was inserted into the tissue to one side of the L6 spinous process, into the groove between the spinous and transverse processes. The needle angle was decreased to about 10°, and the needle slowly advanced forward into the intervertebral space until a pop was felt and there was a visible serpentine tail movement. Compounds were slowly injected in the subarachnoid space in a volume of 5 μl. Each compound was tested at multiple doses. The minimal efficacious dose was used for all subsequent experiments.
(§2) Sensitivity to light touch was quantified by scoring the response of mice to light stroking of their flanks with a small paintbrush, which is not normally painful. […] Statistical calculations of significance for in vivo studies were done using a two-tailed Students t-test.

[2] = tested on: mice; experiment: Phenylephrine-induced tactile hypersensitivity in mice; format: in vivo, mouse; conditions: for tactile (mechanical) hypersensitivity score: Phenylephrine (100 ng/kg I.P.), cumulative score 0 to 16, mean ± SEM
Method: To dissect the contribution of the sympathetic nervous system to sensory sensitization, mouse models having different mechanisms of sensory sensitization were developed. Tactile hypersensitivity was measured in mice following intrathecal or intraperitoneal injection of an inducing agent by scoring the response to light stroking of the mouse flank with a paintbrush.
Spinal drug injections were performed as follows. Mice (20-30 g) were injected intrathecally as described in Hylden and Wilcox, Eur. J. Pharmacol. 67:313-316 (1980). Briefly, a sterile 30-gauge ½ inch needle attached to a microsyringe was inserted between the L5 and L6 vertebrae. The mouse was held firmly by the pelvic girdle in one hand, while the syringe was held in the other hand at an angle of approximately 20° above the vertebral column. The needle was inserted into the tissue to one side of the L6 spinous process, into the groove between the spinous and transverse processes. The needle angle was decreased to about 10°, and the needle slowly advanced forward into the intervertebral space until a pop was felt and there was a visible serpentine tail movement. Compounds were slowly injected in the subarachnoid space in a volume of 5 μl. Each compound was tested at multiple doses. The minimal efficacious dose was used for all subsequent experiments.
Sensitivity to light touch was quantified by scoring the response of mice to light stroking of their flanks with a small paintbrush, which is not normally painful. […] The scores were summed to generate a cumulative score of 0 to 16 as described in Minami et al., Pain 57:217-223 (1994). Statistical calculations of significance for in vivo studies were done using a two-tailed Students t-test.

[3] = tested on: mice; experiment: Sulprostone-induced tactile hypersensitivity in mice; format: in vivo, mouse; conditions: for tactile (mechanical) hypersensitivity score: Sulprostone (200 ng IT), cumulative score 0 to 16, mean ± SEM; for analgesic activity in sulprostone-induced tactile hypersensitivity: result in words
Method: The activity of a synthetic EP1/EP3 receptor-selective prostaglandin agonist, sulprostone, also was assayed.
as §1, §2

[4] = biological target: T1, human α-2A receptor (Homo sapiens, UniProt P08913); conditions: percent efficacy relative to brimonidine
T1 sequence (P08913 1-465): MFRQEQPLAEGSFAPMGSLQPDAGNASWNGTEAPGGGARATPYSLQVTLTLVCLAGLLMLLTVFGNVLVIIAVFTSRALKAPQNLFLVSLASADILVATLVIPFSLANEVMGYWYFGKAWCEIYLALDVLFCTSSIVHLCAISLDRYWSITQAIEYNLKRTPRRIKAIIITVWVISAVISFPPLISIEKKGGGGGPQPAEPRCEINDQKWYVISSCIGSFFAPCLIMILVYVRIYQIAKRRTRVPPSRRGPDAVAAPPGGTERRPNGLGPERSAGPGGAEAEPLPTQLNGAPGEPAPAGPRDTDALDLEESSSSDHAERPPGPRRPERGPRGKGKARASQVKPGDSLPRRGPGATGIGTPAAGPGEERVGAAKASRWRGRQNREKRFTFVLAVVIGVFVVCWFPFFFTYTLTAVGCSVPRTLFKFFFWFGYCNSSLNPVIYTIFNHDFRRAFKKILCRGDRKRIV
Method: (§3) The human α-2A and α-2C receptor supernatants were added, in varying amounts, to naive PC12 cells, which were then incubated for 48 hours. The transduced cell populations were replated at a lower density and grown in media containing 100 ug/ml puromycin.
(§4) Intracellular cAMP measurement was performed as follows. PC12 cells stably expressing the human α-2A or human α-2C adrenergic receptors were plated in 96-well poly-D-lysine coated plates at a density of 30,000 cells per well in 100 μl DMEM supplemented with 10% horse serum, 5% heat inactivated fetal bovine serum, 1% antibiotic-antimycotic and 100 μg/ml puromycin. Cells were grown overnight at 37° C. and 5% CO2. Cells were dosed by adding an equal volume of media containing IBMX (to a final concentration of 1 mM), forskolin (to a final concentration of 10 μM) and the appropriate drug dilution (to a final concentration of between 10^−5 M and 10^−12 M). After a 10 minute incubation, the media was aspirated and the cells lysed with 200 μl lysis buffer (Amersham Biosciences; Piscataway, N.J.). Plates were stored at −20° C. for up to 24 hours prior to assay. Intracellular cAMP was determined using the Biotrak cAMP enzyme immunoassay system (Amersham Biosciences) according to the manufacturer's instructions. Plates were read on a plate reader at 450 nm.

[5] = biological target: T2, human α-2C receptor (Homo sapiens, UniProt P18825); experiment: Inhibition of forskolin-induced cAMP accumulation in PC12 cells expressing human α-2C receptor; format: cell-based; conditions: percent efficacy relative to brimonidine
T2 construct: expressed in transfected cells; host or cells: PC12 cells (retroviral vector pCL BABE Puro)
T2 sequence (P18825 1-462): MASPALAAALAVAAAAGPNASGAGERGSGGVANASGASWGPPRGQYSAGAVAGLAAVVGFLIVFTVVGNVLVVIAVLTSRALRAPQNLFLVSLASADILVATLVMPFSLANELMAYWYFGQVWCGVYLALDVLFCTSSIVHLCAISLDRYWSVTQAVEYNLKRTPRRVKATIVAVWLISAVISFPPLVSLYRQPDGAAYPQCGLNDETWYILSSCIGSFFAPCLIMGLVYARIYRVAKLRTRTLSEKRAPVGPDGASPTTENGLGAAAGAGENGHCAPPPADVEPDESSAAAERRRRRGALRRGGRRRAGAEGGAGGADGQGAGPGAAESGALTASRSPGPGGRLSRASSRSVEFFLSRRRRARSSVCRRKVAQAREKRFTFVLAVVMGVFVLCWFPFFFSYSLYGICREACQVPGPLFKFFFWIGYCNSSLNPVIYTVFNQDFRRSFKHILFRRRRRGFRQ
Method: as §3, §4

[6] = biological target: T3, hamster α-1B adrenergic receptor (Mesocricetus auratus, UniProt P18841); format: cell-based; conditions: for hamster α1B % E: percent efficacy relative to phenylephrine; for agonist activity at the α-1B receptor: result in words
T3 sequence (P18841 1-515): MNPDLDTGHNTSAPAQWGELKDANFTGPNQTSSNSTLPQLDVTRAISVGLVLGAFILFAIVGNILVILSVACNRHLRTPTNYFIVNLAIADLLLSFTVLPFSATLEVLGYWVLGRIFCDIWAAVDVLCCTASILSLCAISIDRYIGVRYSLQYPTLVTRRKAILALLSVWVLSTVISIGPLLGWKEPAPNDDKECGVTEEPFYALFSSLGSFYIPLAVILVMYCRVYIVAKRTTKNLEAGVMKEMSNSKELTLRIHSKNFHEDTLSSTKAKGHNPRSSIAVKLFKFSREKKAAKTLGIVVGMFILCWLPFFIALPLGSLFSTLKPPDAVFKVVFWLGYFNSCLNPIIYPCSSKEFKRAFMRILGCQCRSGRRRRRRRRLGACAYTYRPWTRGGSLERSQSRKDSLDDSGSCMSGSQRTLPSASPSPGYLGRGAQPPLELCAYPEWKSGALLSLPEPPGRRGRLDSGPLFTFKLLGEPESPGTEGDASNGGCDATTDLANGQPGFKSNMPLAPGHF
Method: (§5) The bovine α-1A and hamster α-1B receptor supernatants were added, in varying amounts, to naive HEK293 cells, which were then incubated for 48 hours. The transduced cell populations were replated at a lower density and grown in media containing 0.25 ug/ml puromycin. […] Receptor density was measured in a prazosin radioligand binding assay.
(§6) Intracellular Ca^+2 responses were measured as follows in HEK293 cells stably expressing either the bovine α-1A or hamster α-1B adrenergic receptor. Between 40,000 to 50,000 cells were plated per well in 96-well poly-D-lysine coated plates in 0.2 ml DMEM containing 10% heat-inactivated fetal calf serum, 1% antibiotic-antimycotic and 0.25 μg/ml puromycin one day prior to use. Cells were washed twice with HBSS supplemented with 10 mM HEPES, 2.0 mM CaCl2 and 2.5 mM probenicid, and subsequently incubated at 37° C. for 60 minutes with 4 μM Fluo-4 (Molecular Probes; Eugene, Oreg.). The extracellular dye was washed from the plates twice prior to placing the plates in the fluorometric imaging plate reader (FLIPR; Molecular Devices; Sunnyvale, Calif.). Ligands were diluted in HBSS and aliquoted into a 96-well microplate. Drugs were tested over the concentration range of 0.64 nM to 10,000 nM. Data for Ca^+2 responses were obtained in arbitrary fluorescence units.

[7] = biological target: T4, bovine α-1A adrenergic receptor (Bos taurus, UniProt P18130); experiment: Intracellular Ca+2 response in HEK293 cells expressing bovine α-1A receptor; format: cell-based; conditions: for bovine α1A % E: percent efficacy relative to phenylephrine; for agonist activity at the α-1A receptor: result in words
T4 sequence (P18130 1-466): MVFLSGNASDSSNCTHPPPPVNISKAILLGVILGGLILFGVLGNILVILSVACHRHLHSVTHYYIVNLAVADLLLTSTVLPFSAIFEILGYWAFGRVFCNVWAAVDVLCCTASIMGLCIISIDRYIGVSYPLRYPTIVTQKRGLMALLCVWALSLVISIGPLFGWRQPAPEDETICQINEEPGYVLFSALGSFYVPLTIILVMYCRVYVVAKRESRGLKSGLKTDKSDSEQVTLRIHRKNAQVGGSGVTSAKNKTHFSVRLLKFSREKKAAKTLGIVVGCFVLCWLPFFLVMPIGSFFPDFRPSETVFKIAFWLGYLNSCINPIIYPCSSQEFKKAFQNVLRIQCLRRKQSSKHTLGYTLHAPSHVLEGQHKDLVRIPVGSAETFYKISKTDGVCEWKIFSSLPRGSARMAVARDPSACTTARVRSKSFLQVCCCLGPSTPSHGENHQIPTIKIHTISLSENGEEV
Method: as §5, §6

COc1ccccc1N1CCN(CCCNc2c(C)c(=O)n(C)c(=O)n2C)CC1 [5-MU, 5-methyl urapidil]
tactile (mechanical) hypersensitivity score [1]: 13.3 ± 0.8 | tactile (mechanical) hypersensitivity score [2]: 5.0 ± 1.0 | inhibition of phenylephrine-induced tactile hypersensitivity ([2]; wildtype mice, result in words): block the hypersensitive response | tactile (mechanical) hypersensitivity score [3]: 12.0 ± 1.0

Cc1cccc([C@H](C)c2cnc[nH]2)c1C [Dexmedetomidine]
human α2A % E [4]: 93% | human α2C % E [5]: 90% | hamster α1B % E [6]: 62% | agonist activity at the α-1B receptor [6]: partial agonists | bovine α1A % E [7]: 59% | agonist activity at the α-1A receptor [7]: partial agonists

CCN(Cc1cc(Br)ccc1OCc1ccccc1)c1ccc(C(=O)O)cn1 [EP1 antagonist]
tactile (mechanical) hypersensitivity score [1]: 11.4 ± 1.53 | tactile (mechanical) hypersensitivity score [2]: 9.8 ± 0.7 | tactile (mechanical) hypersensitivity score [3]: 4.0 ± 1.2 | analgesic activity in sulprostone-induced tactile hypersensitivity ([3]; wildtype mice): completely blocked

NCC1(CC(=O)O)CCCCC1 [Gabapentin]
tactile (mechanical) hypersensitivity score [1]: 3.7 ± 0.8 | inhibition of NMDA-induced tactile hypersensitivity ([1]; wildtype mice): inhibited tactile hypersensitivity | tactile (mechanical) hypersensitivity score [2]: 13.0 | tactile (mechanical) hypersensitivity score [3]: 3.2 ± 0.5 | analgesic activity in sulprostone-induced tactile hypersensitivity ([3]; wildtype mice): inhibited tactile hypersensitivity

CC12CC3CC(C)(C1)CC(N)(C3)C2.Cl [Memantine, 1-amino-3,5-dimethyladamantane hydrochloride]
tactile (mechanical) hypersensitivity score [1]: 4.2 ± 0.9 | inhibition of NMDA-induced tactile hypersensitivity ([1]; wildtype mice): blocked | tactile (mechanical) hypersensitivity score [2]: 11.0 ± 0.7 | tactile (mechanical) hypersensitivity score [3]: 14.3 ± 0.8

CN[C@H](CC(=O)O)C(=O)O [NMDA]
dose of maximal tactile hypersensitivity effect ([1]; intrathecal, wildtype mice): 100 ng

CNC[C@H](O)c1cccc(O)c1 [Phenylephrine]
human α2C % E [5]: 87% | hamster α1B % E [6]: 110% | strongly tactile hypersensitivity-inducing dose ([2]; i.p., wildtype mice): 0.03 µg/kg | dose resulting in maximal hypersensitivity ([2]; i.p., α-2A knockout mice): 0.0003 µg/kg | dose resulting in maximal hypersensitivity ([2]; i.p., α-2C knockout mice): 0.0001 µg/kg | dose at which significant tactile hypersensitivity starts ([2]; intraperitoneal, wildtype mice): 0.003 µg/kg | dose at which significant tactile hypersensitivity starts ([2]; intrathecal, wildtype mice): 3 ng | bovine α1A % E [7]: 110%

COc1cc2nc(N3CCN(C(=O)c4ccco4)CC3)nc(N)c2cc1OC [Prazosin]
analgesic activity in sulprostone-induced tactile hypersensitivity ([3]; wildtype mice): no analgesic activity | analgesic activity in sulprostone-induced tactile hypersensitivity ([3]; α-2C knockout mice): no analgesic activity

CS(=O)(=O)NC(=O)CCC/C=C\C[C@H]1C(=O)C[C@@H](O)[C@@H]1/C=C/[C@@H](O)COc1ccccc1 [Sulprostone]
maximal dose for tactile hypersensitivity ([3]; intrathecal, wild-type and α-2C knockout mice): 200 ng | maximally effective dose for tactile hypersensitivity ([3]; intrathecal, α-2A knockout mice): 30 ng

Clc1ccc2nsnc2c1NC1=NCCN1 [Tizanidine]
human α2A % E [4]: 93% | human α2C % E [5]: 85% | hamster α1B % E [6]: 61% | agonist activity at the α-1B receptor [6]: partial agonists | bovine α1A % E [7]: 63% | agonist activity at the α-1A receptor [7]: partial agonists
